Paper PMC6218659, “Structures of DPAGT1 Explain Glycosylation Disease Mechanisms and Advance TB Antibiotic Design” (Cell, 2018)
Positions count from the first letter of the chain named. Structures can show the parent of a compound that is named as a salt.

What was measured:
DPAGT1 Arg301Cys = molecular target: T1, DPAGT1 Arg301Cys (Homo sapiens, UniProt Q9H3H5, R301C); test: Thermostability assay (label free differential scanning fluorimetry); format: binding, H. sapiens; conditions: 50 μM compound
T1 construct: combined with the LIC-adapted primers to amplify the complete DPAGT1 gene, including the desired mutations; 6xHis purification tag with TEV site (N, cleaved yes); made in house; host or cells: Spodoptera frugiperda Sf9 insect cells (baculovirus)
T1 sequence (Q9H3H5 1-408 R301C): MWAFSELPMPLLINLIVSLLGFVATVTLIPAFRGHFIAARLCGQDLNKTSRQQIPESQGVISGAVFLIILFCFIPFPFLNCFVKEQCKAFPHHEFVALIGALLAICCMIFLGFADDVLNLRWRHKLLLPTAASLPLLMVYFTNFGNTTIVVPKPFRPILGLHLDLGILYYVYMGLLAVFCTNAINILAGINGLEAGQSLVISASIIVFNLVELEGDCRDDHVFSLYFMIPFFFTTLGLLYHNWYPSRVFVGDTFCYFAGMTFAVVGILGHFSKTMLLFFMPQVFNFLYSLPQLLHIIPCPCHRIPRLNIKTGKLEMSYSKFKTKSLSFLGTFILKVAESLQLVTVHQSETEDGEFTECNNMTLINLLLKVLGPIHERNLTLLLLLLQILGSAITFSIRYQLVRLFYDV
Protocol: (§1) Samples with a volume of 40 μl were prepared containing 0.5 mg/ml protein and 50 μM compound or 5% DMSO in GFB. A glass capillary was dipped into each sample, with the capillary held horizontally to ensure that the capillary was full of the sample. The capillaries were placed on the capillary holder on the Nanotemper Prometheus. Technical triplicates of each sample were prepared, and each experiment was conducted with biological triplicates of each protein. PR.ThermControl software was used to run the experiment and analyse the data. A melting curve from 20 °C – 95 °C at 5 °C/min was performed. The minimum of the first derivative of the 330/350nm ratio was used to determine the Tm1/2.

DPAGT1 Leu168Pro = molecular target: T2, DPAGT1 Leu168Pro (Homo sapiens, UniProt Q9H3H5, L168P); test: as above; format: binding, H. sapiens; conditions: 50 μM compound
T2 construct: combined with the LIC-adapted primers to amplify the complete DPAGT1 gene, including the desired mutations; 6xHis purification tag with TEV site (N, cleaved yes); made in house; host or cells: Spodoptera frugiperda Sf9 insect cells (baculovirus)
T2 sequence (Q9H3H5 1-408 L168P): T1 sequence (Q9H3H5 1-408 R301C) with L168P, C301R
Protocol: as §1

DPAGT1 Tyr170Cys = molecular target: T3, DPAGT1 Tyr170Cys (Homo sapiens, UniProt Q9H3H5, Y170C); test: as above; format: binding, H. sapiens; conditions: 50 μM compound
T3 construct: combined with the LIC-adapted primers to amplify the complete DPAGT1 gene, including the desired mutations; 6xHis purification tag with TEV site (N, cleaved yes); made in house; host or cells: Spodoptera frugiperda Sf9 insect cells (baculovirus)
T3 sequence (Q9H3H5 1-408 Y170C): T1 sequence (Q9H3H5 1-408 R301C) with Y170C, C301R
Protocol: as §1

DPAGT1 WT = molecular target: T4, DPAGT1 WT (Homo sapiens, UniProt Q9H3H5); test: as above; format: binding, H. sapiens; conditions: 50 μM compound
T4 construct: H. sapiens DPAGT1 (1-408, N-terminal 6 x HIS tag, TEV cleavage site); 6xHis purification tag with TEV site (N, cleaved yes); made in house; host or cells: Spodoptera frugiperda Sf9 insect cells (baculovirus)
T4 sequence (Q9H3H5 1-408): T1 sequence (Q9H3H5 1-408 R301C) with C301R
Protocol: as §1

[1] = Human plasma protein binding assay; format: in vitro ADME; conditions: read-out: human plasma protein binding, bound (converted)
Mtb-infected mice = test: Mouse infection, antitubercular activity
[2] = two weeks, 10 mg.kg^-1 ip, vs vehicle control

Row | SMILES | Thermostability (Tm1/2) with added compound (DPAGT1 Arg301Cys) [°C] | Thermostability (Tm1/2) with added compound (DPAGT1 Leu168Pro) [°C] | Thermostability (Tm1/2) with added compound (DPAGT1 Tyr170Cys) [°C] | Thermostability (Tm1/2) with added compound (DPAGT1 WT) [°C] | fraction unbound [1] | toxicity in infected mice (Mtb-infected mice; precluded testing beyond 2 weeks) | reduction in bacterial burdens in lungs (Mtb-infected mice; [2]) [fold] | reduction in bacterial burdens in spleens (Mtb-infected mice; [2]) [fold]
1 | N[C@H]1[C@H](O[C@H]2O[C@H](CO)[C@@H](O)[C@H](O)[C@H]2N)O[C@H](C[C@@H](O)[C@H]2O[C@@H](n3ccc(=O)[nH]c3=O)[C@H](O)[C@@H]2O)[C@H](O)[C@@H]1O [TUN, α-D-glucosamine-(1”-11')-tunicamyl uracil dihydrochloride] | 80.9±0.5 | 84.0±0.2 | 83.1±0.8 | 83.0±0.4 | – | – | – | –
2 | CCCCCCCC(=O)N[C@H]1[C@H](O[C@H]2O[C@H](CO)[C@@H](O)[C@H](O)[C@H]2NC(=O)CCCCCCC)O[C@H](C[C@@H](O)[C@H]2O[C@@H](n3ccc(=O)[nH]c3=O)[C@H](O)[C@@H]2O)[C@H](O)[C@@H]1O [TUN-8,8, Di-N-octanoyl-tunicamycin] | – | – | – | – | 0.018 | clinical signs of toxicity | ~10 | ~5
